This is an account of results in ChEMBL document CHEMBL5365500, “Development and Antibacterial Properties of 4-[4-(Anilinomethyl)-3-phenylpyrazol-1-yl]benzoic Acid Derivatives as Fatty Acid Biosynthesis Inhibitors” (J Med Chem, 2023).

Series [1] has as its system Staphylococcus aureus. Briefly: Antimicrobial activity against clinical isolate Staphylococcus aureus Smu81 assessed as inhibition of growth measured after 20 to 24 hrs incubation by CLSI method. The series is classed as functional. The following applies: time 20-24 hrs.
The subject of series [2] is Staphylococcus aureus. Briefly: Antimicrobial activity against clinical isolate Staphylococcus aureus Smu109 assessed as inhibition of growth measured after 20 to 24 hrs incubation by CLSI method. The series is classed as functional. The following applies: time 20-24 hrs.
Series [3] has as its system Staphylococcus aureus. Briefly: Antimicrobial activity against clinical isolate Staphylococcus aureus Smu9 assessed as inhibition of growth measured after 20 to 24 hrs incubation by CLSI method. In kind it is functional. The note with it: time 20-24 hrs.
Series [4] relates to Staphylococcus aureus. Briefly: Antimicrobial activity against Staphylococcus aureus UAB159 assessed as inhibition of growth measured after 20 to 24 hrs incubation by CLSI method. The series is classed as functional. The following applies: time 20-24 hrs.
Series [5] concerns Staphylococcus aureus. Briefly: Antimicrobial activity against clinical isolate Staphylococcus aureus Smu57 assessed as inhibition of growth measured after 20 to 24 hrs incubation by CLSI method. The series is classed as functional. The following applies: time 20-24 hrs.
Series [6] relates to Staphylococcus aureus. Briefly: Antimicrobial activity against clinical isolate Staphylococcus aureus Smu21 assessed as inhibition of growth measured after 20 to 24 hrs incubation by CLSI method. The note with it: time 20-24 hrs. In kind it is functional.
A further series concerns Bacillus subtilis. Briefly: Antimicrobial activity against antibiotic-resistant Bacillus subtilis ATCC 6623 assessed as inhibition of visible growth measured after 20 to 24 hrs incubation by CLSI method. The series is classed as functional. The note with it: time 20-24 hrs.
The test system of the next series is Enterococcus faecium. Briefly: Antimicrobial activity against antibiotic-resistant Enterococcus faecium ATCC 700221 assessed as inhibition of visible growth measured after 20 to 24 hrs incubation by CLSI method. The following applies: time 20-24 hrs. In kind it is functional.
The subject of series [7] is Staphylococcus aureus. Briefly: Antimicrobial activity against antibiotic-resistant Staphylococcus aureus ATCC 33591 assessed as inhibition of visible growth measured after 20 to 24 hrs incubation by CLSI method. The note with it: time 20-24 hrs. In kind it is functional.
Series [8] relates to Staphylococcus aureus. Briefly: Antimicrobial activity against Staphylococcus aureus ATCC 25923 assessed as inhibition of visible growth measured after 20 to 24 hrs incubation by CLSI method. The series is classed as functional. The note with it: time 20-24 hrs.
In series [9] the test system is Staphylococcus aureus. Briefly: Antimicrobial activity against antibiotic-resistant Staphylococcus aureus ATCC 33592 assessed as inhibition of visible growth measured after 20 to 24 hrs incubation by CLSI method. The series is classed as functional. The note with it: time 20-24 hrs.
Series [10] concerns Enterococcus faecalis. Briefly: Antimicrobial activity against antibiotic-resistant Enterococcus faecalis ATCC 51299 assessed as inhibition of visible growth measured after 20 to 24 hrs incubation by CLSI method. In kind it is functional. The note with it: time 20-24 hrs.
Series [11] deals with Staphylococcus aureus. Briefly: Antimicrobial activity against antibiotic-resistant Staphylococcus aureus ATCC 700699 assessed as inhibition of visible growth measured after 20 to 24 hrs incubation by CLSI method. In kind it is functional. The following applies: time 20-24 hrs.
In series [12] the test system is Staphylococcus epidermidis. Briefly: Antimicrobial activity against antibiotic-resistant Staphylococcus epidermidis ATCC 700296 assessed as inhibition of visible growth measured after 20 to 24 hrs incubation by CLSI method. In kind it is functional. The following applies: time 20-24 hrs.
Series [13] concerns Enterococcus faecalis. Briefly: Antimicrobial activity against antibiotic-susceptible Enterococcus faecalis ATCC 29212 assessed as inhibition of visible growth measured after 20 to 24 hrs incubation by CLSI method. The note with it: time 20-24 hrs. In kind it is functional.
Series [14] concerns Staphylococcus aureus. Briefly: Antimicrobial activity against methicilline-resistant Staphylococcus aureus ATCC 700699 persisters assessed as bacterial killing at 32 time of MIC concentration measured for every 2 hrs upto 8 hrs by Persisters time course assay. In kind it is functional, organism-based.
Series [15] relates to Staphylococcus aureus. Briefly: Antimicrobial activity against antibiotic-resistant Staphylococcus aureus ATCC BAA-2312 assessed as inhibition of visible growth measured after 20 to 24 hrs incubation by CLSI method. The series is classed as functional. The following applies: time 20-24 hrs.
In series [16] the test system is Staphylococcus aureus. Briefly: In vivo antimicrobial activity against Staphylococcus aureus Newman infected in Caenorhabditis elegans AU37 nematodes assessed as viability of nematodes incubated for 5 days by susceptibility test. The note with it: 120 h, time 5 day. In kind it is functional.
In series [17] the test system is Staphylococcus aureus. Briefly: In vivo antimicrobial activity against Staphylococcus aureus USA300 infected in Caenorhabditis elegans AU37 nematodes assessed as viability of nematodes incubated for 5 days by susceptibility test. The series is classed as functional. The following applies: USA300, 120 h, time 5 day.
The subject of a further series is HEK293. Briefly: Cytotoxicity against human HEK293 cells assessed as cell viability measured after 24 hrs by resazurin assay. The series is classed as toxicity, cell-based.
Series [18] deals with Staphylococcus aureus. Briefly: In vivo antimicrobial activity against Staphylococcus aureus UAMS-1 infected in Caenorhabditis elegans AU37 nematodes assessed as viability of nematodes incubated for 5 days by susceptibility test. In kind it is functional. The following applies: UAMS-1, 120 h, time 5 day.
Series [19] relates to Enterococcus faecalis. Briefly: Antimicrobial activity against antibiotic-susceptible Enterococcus faecalis ATCC 29212 assessed as eradication of biofilm measured after 24 hrs incubation by Calgary method. In kind it is functional.
The subject of series [20] is Staphylococcus aureus. Briefly: Bactericidal activity in antibiotic-resistant Staphylococcus aureus ATCC 700699 assessed as reduction in viable cell count at 4 times of MIC measured upto 24 hrs by time kill assay. The series is classed as functional, organism-based.
Series [21] relates to Panel NCI-60 (60 carcinoma cell lines). Briefly: Cytotoxicity against human panel NCI-60 (60 carcinoma cell lines)cells assessed as cell viability at 10 uM measured after 24 hrs by resazurin assay. The series is classed as functional, cell-based. Background: Alamar Blue is a resazurin reagent that responds to reducing activity.
The test system of series [22] is Staphylococcus aureus. Briefly: Antimicrobial activity against Staphylococcus aureus ATCC 25923 assessed as eradication of biofilm measured after 24 hrs incubation by Calgary method. The series is classed as functional.

In brackets after ≈: the same amount, converted by molar mass. Activity calls are given as the source filed them.

Take `O=C(O)c1ccc(-n2cc(CNc3cc(Cl)cc(Cl)c3)c(-c3ccc(C(F)(F)F)cc3)n2)cc1`: the MIC (commonly the smallest concentration in the dilution series that meets the test's criterion for growth inhibition) in the series with Staphylococcus aureus [1] stood at 2 µg/mL (≈ 3.95 µM); in the series on Staphylococcus aureus [2], 2 µg/mL (≈ 3.95 µM); in the series on Staphylococcus aureus [3], 1 µg/mL (≈ 1.98 µM); in the series on Staphylococcus aureus [4], 2 µg/mL (≈ 3.95 µM); in the series with Staphylococcus aureus [5], 2 µg/mL (≈ 3.95 µM); in the series with Staphylococcus aureus [6] it was 2 µg/mL (≈ 3.95 µM).
Take `O=C(O)c1ccc(-n2cc(CNc3cc(C(F)(F)F)cc(C(F)(F)F)c3)c(-c3cccc(F)c3)n2)cc1`: the MIC was found to be 1 µg/mL (≈ 1.91 µM) in the series with Bacillus subtilis; 2 µg/mL (≈ 3.82 µM) with Enterococcus faecium; 1 µg/mL (≈ 1.91 µM) in the series on Staphylococcus aureus [7]; 2 µg/mL (≈ 3.82 µM) with Staphylococcus aureus [8]; 1 µg/mL (≈ 1.91 µM) in the series with Staphylococcus aureus [9]; 2 µg/mL (≈ 3.82 µM) in the series with Enterococcus faecalis [10]. Further, the MIC in the series on Staphylococcus aureus [11] was 2 µg/mL (≈ 3.82 µM); in [12], 4 µg/mL (≈ 7.64 µM); in the series with Enterococcus faecalis [13], 4 µg/mL (≈ 7.64 µM); in the series on Staphylococcus aureus [15], 1 µg/mL (≈ 1.91 µM). In addition, the result in the series with Staphylococcus aureus [14] was Active.
Regarding `O=C(O)c1ccc(-n2cc(CNc3ccc(Br)c(Cl)c3)c(-c3ccc(F)cc3)n2)cc1`, the MIC with Bacillus subtilis turned out to be 0.5 µg/mL (≈ 0.998 µM); in the series on Enterococcus faecium it was 4 µg/mL (≈ 7.99 µM); with Staphylococcus aureus [16], 1 µg/mL (≈ 2 µM); in the series with Staphylococcus aureus [17], 2 µg/mL (≈ 3.99 µM); in the series with Staphylococcus aureus [7], 1 µg/mL (≈ 2 µM); in the series on Staphylococcus aureus [8] it was 1 µg/mL (≈ 2 µM). The MIC worked out at 1 µg/mL (≈ 2 µM) in the series on Staphylococcus aureus [9]; 8 µg/mL (≈ 16 µM) in the series on Enterococcus faecalis [10]; 2 µg/mL (≈ 3.99 µM) in the series with Staphylococcus aureus [11]; 4 µg/mL (≈ 7.99 µM) in series [12]; 2 µg/mL (≈ 3.99 µM) in the series on Staphylococcus aureus [18]; 8 µg/mL (≈ 16 µM) in the series with Enterococcus faecalis [13]. In addition, the MIC with Staphylococcus aureus [15] was 1 µg/mL (≈ 2 µM). The IC50 (as a rule, the concentration that inhibits the measured activity by half) with HEK293 was 20 µg/mL (≈ 39.9 µM).
Take `O=C(O)c1ccc(-n2cc(CNc3cc(Br)cc(C(F)(F)F)c3)c(-c3cccc(F)c3)n2)cc1`: the MIC was 1 µg/mL (≈ 1.87 µM) with Bacillus subtilis; 2 µg/mL (≈ 3.74 µM) in the series with Enterococcus faecium; 1 µg/mL (≈ 1.87 µM) with Staphylococcus aureus [16]; 1 µg/mL (≈ 1.87 µM) in the series with Staphylococcus aureus [17]; 1 µg/mL (≈ 1.87 µM) in the series on Staphylococcus aureus [7]; 2 µg/mL (≈ 3.74 µM) with Staphylococcus aureus [8]. In addition, the MIC is 2 µg/mL (≈ 3.74 µM) in the series with Staphylococcus aureus [9]; 4 µg/mL (≈ 7.49 µM) in the series on Enterococcus faecalis [10]; 2 µg/mL (≈ 3.74 µM) in the series with Staphylococcus aureus [11]; 4 µg/mL (≈ 7.49 µM) in series [12]; 1 µg/mL (≈ 1.87 µM) with Staphylococcus aureus [18]; 4 µg/mL (≈ 7.49 µM) in the series with Enterococcus faecalis [13]. Further, the MIC in the series with Staphylococcus aureus [15] came to 1 µg/mL (≈ 1.87 µM). In addition, the MBEC in the series with Enterococcus faecalis [19] and in the series on Staphylococcus aureus [22] was 4 µg/mL throughout. Further, the outcome in the series on Staphylococcus aureus [20] and in the series with Staphylococcus aureus [14] was Active. Besides, the outcome in series [21] was inactive.
For the molecule `O=C(O)c1ccc(-n2cc(CNc3cccc(Br)c3)c(-c3cccc(F)c3)n2)cc1`, the minimum inhibitory concentration (MIC) in the series with Bacillus subtilis came to 2 µg/mL (≈ 4.29 µM); in the series on Enterococcus faecium, 16 µg/mL (≈ 34.3 µM); in the series with Staphylococcus aureus [7], 2 µg/mL (≈ 4.29 µM); in the series on Staphylococcus aureus [8], 4 µg/mL (≈ 8.58 µM); in the series on Staphylococcus aureus [9], 8 µg/mL (≈ 17.2 µM); in the series with Enterococcus faecalis [10], 16 µg/mL (≈ 34.3 µM). The MIC in the series with Staphylococcus aureus [11] was determined as 8 µg/mL (≈ 17.2 µM); in series [12] it was 16 µg/mL (≈ 34.3 µM); in the series on Enterococcus faecalis [13], 16 µg/mL (≈ 34.3 µM); in the series with Staphylococcus aureus [15] it was 4 µg/mL (≈ 8.58 µM).
Turning to `O=C(O)c1ccc(-n2cc(CNc3ccc(Cl)c(Cl)c3)c(-c3cccc(F)c3)n2)cc1`, the MIC in the series on Bacillus subtilis was found to be 1 µg/mL (≈ 2.19 µM); with Enterococcus faecium it was 4 µg/mL (≈ 8.77 µM); in the series on Staphylococcus aureus [7], 1 µg/mL (≈ 2.19 µM); in the series with Staphylococcus aureus [8] it was 2 µg/mL (≈ 4.38 µM); in the series on Staphylococcus aureus [9] it was 4 µg/mL (≈ 8.77 µM); in the series with Enterococcus faecalis [10], 8 µg/mL (≈ 17.5 µM). Further, the MIC with Staphylococcus aureus [11] is 2 µg/mL (≈ 4.38 µM); in [12], 4 µg/mL (≈ 8.77 µM); in the series with Enterococcus faecalis [13], 8 µg/mL (≈ 17.5 µM); in the series on Staphylococcus aureus [15], 2 µg/mL (≈ 4.38 µM).
